The values that follow come from patent US20030017590A1, “PRODUCTION OF HUMAN CNS NEURONS FROM EMBRYONAL CARCINOMA CELLS USING CELL AGGREGATION METHOD” (priority 1999, published 2003).

For test [1], the system named is NT2 aggregates. Kind of test: Western blot of neuronal markers in RA-differentiated NT2 aggregates. The class given is cell-based, human. Here is the method: (§1) FIG. 5. Expression of neuronal markers in RA differentiated NT2 aggregates. NT2 cells were pre-aggregated by RA at concentration (10^−7 to 10^−5 M) for 14 days and replated onto PDL/LAM coated plates for two days. As control experiments, NT2 cells were plated at 2×10^5 cells/ml as monolayer cultures and differentiated with RA (10^−7 to 10^−5 M) for a total of 16 days. Total proteins were extracted and Western blot analysis was performed using antibodies specific against phosphorylated NF-M (NF-M-P; upper panel) and synapsin I (lower panel).
(§2) Cells were washed twice with ice-cold PBS followed by a wash with ice-cold PBS supplemented with 1 mM sodium orthovanadate (NaOV; SIGMA, St. Louis, Mo., USA). Cells were then lysed with lysis buffer (50 mM Tris.Cl at pH8, 150 mM NaCl, 1% TX, 1×aprotinin; SIGMA, St. Louis, Mo., USA, 1 mM PMSF; GIBCO, Palo Alto, Calif., USA and 1 mM NaOV) at 4° C. for 15 minutes. Lysates were collected and centrifuged to remove cell debris. Protein assays were performed with Bio-Rad Protein Assay Kit based on the Bradford dye-binding procedure (BIO-RAD, Hercules, Calif., USA). Protein (typically 10 μg) were separated by SDS-PAGE and then electro-transferred to nitrocellulose membrane (MSI, Westborough, Mass., USA). After blocking at room temperature for 1 hr using TBS-Tween containing 5% non-fat milk, membranes were incubated overnight at 4° C. with primary antibodies in TBS-Tween containing 5% non-fat milk. Membranes were then incubated with horseradish peroxidase conjugated secondary antibodies (1:2000 dilution; AMERSHAM, Arlington Heights, Ill., USA) for 1 hour at room temperature. After three washes with TBS-Tween, immunoreactive bands were detected using ECL kit (AMERSHAM, Arlington Heights, Ill., USA).
To study whether the high concentrations of RA required for inducing neuronal differentiation of NT2 cells could be lowered under the condition of cell aggregation, we exposed the NT2 aggregates to reduced concentration of RA (0.1 to 10 μM). Following treatment of NT2 aggregates with RA for 14 days, these cells were plated onto PDL/LAM coated plates in RA-free medium, and total protein samples were prepared 2 days later. As control, total protein samples were extracted from monolayer NT2 cultures treated with 16 days of RA (0.1 to 10 μM).
(In general: A western blot detects proteins with antibodies after separation by electrophoresis.)

Test [2] relates to NT2 cells. As to the kind of experiment: Indirect immunofluorescent analysis of NT2 neurons differentiated by cell aggregation. The settings on record: RA 5 μM for 14 days, two days after replating in RA-free medium. The class given is cell-based, human. Here is the method: NT2 cells were aggregated and differentiated by RA (5 μM) for 14 days. Two days after replating in RA-free medium, differentiated NT2 cells were fixed and stained with the antibodies specific against TH (upper panel), and phosphorylated NF-M (lower panel). Scale bar, 50 μm.
For immunofluorescent analysis, control or differentiated aggregates cultures were fixed with 4% paraformaldehyde (FLUKA, Hauppauge, N.Y., USA) in PBS. After blocking with 4% normal serum (NS; VECTOR LAB, Burlingame, Calif., USA) in PBS containing 0.4% Triton-X (TX; BOERINGER MANNEHEIM, Mannheim, Germany), and 1% bovine serum albumin (BSA; SIGMA, St. Louis, Mo., USA), aggregates were incubated overnight at 4° C. with primary antibodies diluted in antibody diluent (1% NS, 0.4% TX and 1% BSA). Incubation with secondary antibodies was performed at room temperature for at least 2 hours. Cells were visualized under fluorescence microscope (ZEISS, Jena, Germany). […]
In order to verify whether the phase-bright cells obtained following cell aggregation were neurons, immunocytochemical analysis was performed. High-molecular weight neurofilament proteins (200 kDa) were detected in the neurites of the neurons (FIG. 2). […] In addition, substance P (SP) was detected in both the cell bodies and the neurites of the neurons (FIG. 2). […]

For test [3], the system named is NT2 cells. The settings on record: standard protocol for differentiation; cited from earlier work.
The test system of test [4] is NT2 cells. Kind of test: RA-induced neuronal differentiation of NT2 cell aggregates (phase contrast morphology). The class given is cell-based, human. The settings on record: for number of neurons that could be prepared: NT2 aggregates. Here is the method: NT2 cells were cultured as previously described (Pleasure, S. J. et al., 1992, J. Neurosci. 12:1802-1815). Briefly, cells were maintained in OptiMEMI-reduced serum medium (GIBCO, Palo Alto, Calif., USA) supplemented with 5% fetal bovine serum (FBS; GIBCO, Palo Alto, Calif., USA). When NT2 cells were differentiated by the standard protocol, NT2 cells were seeded at 2×10^6 cells per 75 cm^2 in Dulbecco's Modified Eagle's medium (high glucose formulation) (DMEM-HG; GIBCO, Palo Alto, Calif., USA) and were treated with a final concentration of 10 μM all-trans RA (SIGMA, St. Louis, Mo., USA). In the cell aggregation studies, cells were dislodged by trypsinization and were plated at 1×10^5 cells per ml into a 85-mm bacteriological grade petri dish in DMEM-HG supplemented 10% FBS. After incubation overnight at 37° C. in a 5% CO2 incubator, the aggregates were supplemented with a final concentration of 10 μM all-trans RA. The medium was replaced every two days. After 14 days of RA treatment, aggregates were plated onto tissue culture grade petri dish pre-coated with 10 μg/ml poly-D-lysine (PDL; SIGMA, St. Louis, Mo., USA), 10 μg/ml mouse laminin (LAM; GIBCO, Palo Alto, Calif., USA) and 0.1% gelatin (SIGMA, St. Louis, Mo., USA) in Dulbecco's Phosphate buffered saline (D-PBS; GIBCO, Palo Alto, Calif., USA). Following overnight incubation, aggregates were then cultured in DMEM-HG with 10% FBS supplemented with 1 μM cytosine D-arabinofuranoside (arac; SIGMA, St. Louis, Mo., USA) and 10 μM uridine (SIGMA, St. Louis, Mo., USA). After 3 days of incubation, neurons were detached by tapping gently on the side of the tissue culture plate, or by brief trypsinization, and replated on to a new pre-coated tissue culture plate. Incubation was continued in the presence of araC and uridine for another 4 days. Neurons obtained could be kept in DMEM supplemented with 10% FBS for more than 3 weeks.
To examine the effect of cell aggregation on RA-induced neuronal differentiation, NT2 cells were pre-aggregated as described above. After 14 days of RA treatment, aggregates were plated on PDL and LAM (PDL/LAM) coated plates. […] Phase bright neuron-like cells with long extended neurites continued to migrate out from the NT2 aggregates. At day 3 after replating, these cells grew on the surface of large-flattened cells (FIG. 1). […] However, neuron-like cells were subsequently overwhelmed by both undifferentiated NT2 cells and the differentiated large-flattened cells (Pleasure, S. J. et al., 1992, J. Neurosci. 12:1802-1815).
It is possible that the sustained requirement of RA for the neuronal differentiation of NT2 is indeed due to the lack of cell-cell interaction. To examine this possibility, NT2 cells were maintained as aggregates in bacteriological culture dish for 14 days and RA treatment was given only during the first few days of aggregation (1 to 5 days).

Test [5] relates to monolayer NT2 cells. Kind of test: Western blot of neuronal markers in RA-treated monolayer NT2 cultures. It is filed as cell-based, human. The settings on record: RA 0.1 to 10 μM for 16 days. Here is the method:
as §1
as §2, with “Mass., USA). […] After three” for “Mass., USA). After blocking at room temperature for 1 hr using TBS-Tween containing 5% non-fat milk, membranes were incubated overnight at 4° C. with primary antibodies in TBS-Tween containing 5% non-fat milk. Membranes were then incubated with horseradish peroxidase conjugated secondary antibodies (1:2000 dilution; AMERSHAM, Arlington Heights, Ill., USA) for 1 hour at room temperature. After three”, “Ill., USA). […]” for “Ill., USA).”

Setting [6] is: NT2 aggregates, RA 0.1 to 10 μM.

Entries after “also recorded” stand apart in the source; their conditions may differ.

On to `CC1=C(/C=C/C(C)=C/C=C/C(C)=C/C(=O)O)C(C)(C)CCC1` [RA, all-trans retinoic acid], for which the “expression level of phosphorylated NF-M proteins, aggregates versus monolayer” value in test [1] (NT2 aggregates at 0.1 μM RA versus monolayer NT2 cells at 10 μM RA) is reported as “comparable expression level”. In test [1] (setting [6]), the “expression level of phosphorylated NF-M proteins versus RA concentration” value is listed as “elevated with increased concentration of RA” and the “synapsin I protein expression” value is recorded as “High level of synapsin I protein expression was detected”. In test [1] (NT2 aggregates, RA 0.1 to 10 μM for 14 days, 2 days on PDL/LAM), the “expression of phosphorylated NF-M proteins” value is recorded as “could induce the expression of phosphorylated NF-M proteins”. In test [2], the “expression of neuronal specific proteins (NF200, synapsin I, substance P, GABA)” value is recorded as “expressed neuronal specific proteins” and the “expression of tyrosine hydroxylase (TH)” value is “expressed tyrosine hydroxylase (TH)”. For the same compound, the “time until neuron-like cells observed after RA treatment” value in test [3] is “about five weeks”. Also, the “formation of neurons after brief RA treatment” value in test [4] (2 to 3 days of RA treatment (10 μM), cells maintained as aggregates for 14 days) is “Neurons were observed”. Also, the “neurite outgrowth from NT2 aggregates” value in test [4] (14 days of RA treatment (10 μM), plated on PDL/LAM, overnight incubation without RA) is reported as “Neurite outgrowth was initiated”. Besides, the “number of neurons that could be prepared” value in test [4] (0.1 μM RA) was “almost no neurons were observed; also recorded: did not result in cells that resembled neurons”. Also, in test [4] (1 μM RA), the “number of neurons that could be prepared” value is reported as “only a few neurons could be observed”. Also, the “time to formation of neurons” value in test [4] (NT2 cells treated with RA as aggregates in bacteriological plates) was no more than 16 days. Moreover, the “extension of neurites from NT2 cells” value in test [4] (RA for only 12 days, 2 days after plating on PDL/LAM) is given as “extension of neurites from NT2 cells was observed”. Besides, the “neuritic outgrowth of RA-treated aggregates” value in test [4] (cell aggregation period less than 12 days) was “did not result in observable neuritic outgrowth”. In addition, the “expression of phosphorylated NF-M” value in test [5] is on record as “expressed phosphorylated NF-M only at higher concentrations of RA (1 or 10 μM)”.
